Source: US9211305B2, “Pharmaceutical compositions with glycosaminoglycans and use thereof in the treatment of chronic ulcers” (LABORATORIOS FARMACEUTICOS ROVI S.A., priority 2008, dated 2015)
Values joined by “and” are separate entries in the source; they are usually repeats but may differ in a detail not shown here. Equal values may be shown once. “Also recorded” adds a separate entry of the source.

What was measured:
factor Xa = assay: Anti-factor Xa activity; type: biochemical
diabetic wistar rat [1] = assay: Example 1: ulcer area reduction in streptozocin-diabetized rats, subcutaneous route; type: in vivo
Procedure: To perform the present example, doses of 45 mg/kg of streptozocin (STZ) were administered by intramuscular route to make a batch of 8 rats diabetic (Andrades Ja et al. Engineering, expression, and renaturation of a collagen-targeted human bFGF fusion protein. Growth Factors. 2001; 18(4):261-75).
(§1) Male wistar rats with an average weight of 250 g per rat were used, to which a dose of 11.25 mg STZ per rat was administered by means of the intramuscular administration of 100 μL in the left paw of each rat.
(§2) Sweetened water (350 mg/dL) was administered to all the rats for three days and glucose measurements were performed with a glucometer every day to verify that the rats were indeed diabetized. For this reason, before the administration and at time 4 days after the administration of streptozocin, a drop of blood was extracted from the rat tail vein for the subsequent quantification of glycemia and to see whether they were diabetic before starting the ulceration assay.
Once the rats were diabetized, 4 ulcers with a diameter of 1 cm each were made on them using a scalpel. An anesthesia/analgesia protocol with Ketamine/xylazine was followed according to the recommendations of the book: “Handbook of laboratory animal management and welfare”:
The ulcers were treated with water and cleaned for 9 days after the ulceration.
The administrations of bemiparin were performed by means of a bemiparin solution by subcutaneous route (100 μL) for the treatment of the ulcers.
The diameter of the ulcer was quantified by means of tracing the ulcer onto a transparency to see the progress of the healing.

non-diabetic rats = assay: Example 3: percentage of ulcer healing in non-diabetic rats, SC route; type: in vivo, Wistar rat; conditions: for percentage of healing of day 9 with respect to day 1, Average: Group 1, non-diabetic, 217 IU/rat SC
Procedure: (§3) Diabetes was induced in 6 of all the rats and 4 of them were left as a non-diabetic control, to test the result of the healing of chronic ulcers not caused by diabetes.
Once the rats are ready, 2 ulcers with a diameter of 1 cm each were made on them using a scalpel. An anesthesia/analgesia protocol with ketamine/xylazine was followed according to the recommendations of the book: “Handbook of laboratory animal management and welfare”:
The ulcers were treated with water and cleaned for 9 days after the ulceration. A corresponding solution was administered to each group by SC route (100 μL) for the treatment of the ulcers. The diameter of the ulcer was quantified by means of tracing the ulcer onto a transparency to see the progress of the healing.

diabetic wistar rat [2] = assay: Example 3: percentage of ulcer healing in diabetic rats, SC route; type: in vivo; conditions: 0.22 mg/rat SC, one rat
Procedure: To perform the present embodiment, doses of 45 mg/kg of streptozocin (STZ) were administered by intramuscular route to make a batch of 10 rats diabetic (Andrades Ja et al. Engineering, expression, and renaturation of a collagen-targeted human bFGF fusion protein. Growth Factors. 2001; 18(4):261-75).
as §1, §3
as §2, with “to” for “to all”, “and” for “and to”
Once the rats are ready, 2 ulcers with a diameter of 1 cm each were made on them using a scalpel. […]

Compound	anti-Xa/anti-IIa ratio (factor Xa)	percentage of area reduction of day 9 with respect to day 1, Average (diabetic wistar rat [1]; 108 IU rat, subcutaneous, ulcer E excluded) [%]	macroscopic healing process (diabetic wistar rat [1]; 217 IU rat compared with 108 IU rat)	percentage of area reduction of day 9 with respect to day 1, Average (diabetic wistar rat [1]; 217 IU rat, subcutaneous) [%]	percentage of area reduction of day 9 with respect to day 1 (diabetic wistar rat [1]; single ulcers, 217 IU rat, subcutaneous)	macroscopic healing process (non-diabetic rats; Group 1 (217 IU/rat) compared with the rest of groups)	percentage of healing of day 9 with respect to day 1, Average (non-diabetic rats) [%]	percentage of healing of day 9 with respect to day 1, Average (non-diabetic rats; listed as bemiparin) [%]	percentage of healing of day 9 with respect to day 1, Average (diabetic wistar rat [2]) [%]	percentage of healing of day 9 with respect to day 1 (diabetic wistar rat [2]; single ulcers)
Bemiparin	greater than 8	24.39 ± 7.47	macroscopically much better	27.35 ± 7.25	26.2% and 20.14% and 25.64% and 37.43%	macroscopically much better	71.82	71.82	–	–
CO[C@H]1O[C@H](COS(=O)(=O)O)[C@@H](O[C@@H]2O[C@@H](C(=O)O)[C@@H](O[C@H]3O[C@H](COS(=O)(=O)O)[C@@H](O[C@@H]4O[C@H](C(=O)O)[C@@H](O[C@H]5O[C@H](COS(=O)(=O)O)[C@@H](O)[C@H](O)[C@H]5NS(=O)(=O)O)[C@H](O)[C@H]4O)[C@H](OS(=O)(=O)O)[C@H]3NS(=O)(=O)O)[C@H](O)[C@H]2OS(=O)(=O)O)[C@H](O)[C@H]1NS(=O)(=O)O [Fondaparinux]	–	–	–	–	–	–	–	–	50.22	A 50.99%; also recorded: B 49.55%
